Data from patent publication US8088806B2 (Achillion Pharmaceuticals, Inc., priority 2005, dated 2012).

System: HCV replicon
Assay: Replicon based assay of HCV replication inhibition (NPT ELISA)
Assay type: cell-based, Hepatitis C virus
Details: Hepatitis C virus, replicon based assay of HCV replication inhibition; Table II; read-out: Activity
Procedure, shortened: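 NPT (neomycin phosphotransferase) content, proportional to replicon replication, quantified by capture ELISA on day four. Before that, replicon-bearing Huh-7 cells in G418-free screening medium were exposed three days at 37° C to compound, typically six doses from 10 to 0.03 micromolar, with equal DMSO across wells.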

| Structure (SMILES) | EC50 [µM] |
| --- | --- |
| CCCCCCCCOc1ccc(Nc2nc(CN3CCN(C4CCCCCC4)CC3)cs2)cc1 [compound 314, 4-((4-cycloheptylpiperazin-1-yl)methyl)-N-(4-(octyloxy)phenyl)thiazol-2-amine] | < 1 |
| CCCCCCCCOc1ccc(Nc2nc(CN3CCC(C(N)=O)CC3)cs2)cc1 [compound 315, 1-((2-(4-(octyloxy)phenylamino)thia-zol-4-yl)methyl)piperidine-4-carboxammide] | 1 to 10 |
| CCCCCCCCOc1ccc(Nc2nc(CN3CCOCC3)cs2)cc1 [compound 316, 4-(morpholinomethyl)-N-(4-(octyloxy)phenyl)thiazol-2-amine] | 1 to 10 |
| CCCCCCCCOc1ccc(Nc2nc(CN3CCC(N(C)C)C3)cs2)cc1 (stereo not shown) [compound 317, 4-((3-(dimethylamino)pyrrolidin-1-yl)methyl)-N-(4-(octyloxy)phenyl)thiazol-2-amine] | < 1 |
| CCCCCCCCOc1ccc(Nc2nc(CN3CCC(O)C3)cs2)cc1 (stereo not shown) [compound 318, 1-((2-(4-(octyloxy)phenylamino)thia-zol-4-yl)methyl)pyrrolidin-3-ol] | < 1 |
| CCCCCCCCOc1ccc(Nc2nc(CN3CCC(C(=O)OCC)CC3)cs2)cc1 [compound 319, ethyl 1-((2-(4-(octyloxy)phenylamino)thia-zol-4-yl)methyl)piperidine-4-carboxylate] | 1 to 10 |
| CCCCCCCCOc1ccc(Nc2nc(CN3C[C@H](O)CC3C(=O)OC)cs2)cc1 (stereo partly drawn) [compound 320, (4R)-methyl 4-hydroxy-1-((2-(4-(octyloxy)pheenylamino)thia-zol-4-yl)methyl)pyrrolidine-2-carboxylate] | < 1 |
| CCCCCCCCOc1ccc(Nc2nc(CN3CCC(O)CC3)cs2)cc1 [compound 321, 1-((2-(4-(octyloxy)phenylamino)thia-zol-4-yl)methyl)piperidin-4-ol] | 1 to 10 |
| CCCCCCCCOc1ccc(Nc2nc(CN3CCC(CO)CC3)cs2)cc1 [compound 322, (1-((2-(4-(octyloxy)phenylamino)thia-zol-4-yl)methyl)piperidin-4-yl)methanol] | 1 to 10 |
| CCCCCCCCOc1ccc(Nc2nc(CN3CCCC(C(=O)O)C3)cs2)cc1 (stereo not shown) [compound 323, 1-((2-(4-(octyloxy)phenylamino)thia-zol-4-yl)methyl)piperidine-3-carboxylic acid] | 1 to 10 |
| CCCCCCCCOc1ccc(Nc2nc(CN3CCC(C)CC3)cs2)cc1 [compound 324, 4-((4-methylpiperidin-1-yl)methyl)-N-(4-(octyloxy)phenyl)thiazol-2-amine] | 1 to 10 |
| CCCCCCCCOc1ccc(Nc2nc(CN3CCCC(C)C3)cs2)cc1 (stereo not shown) [compound 325, 4-((3-methylpiperidin-1-yl)methyl)-N-(4-(octyloxy)phenyl)thiazol-2-amine] | 1 to 10 |
| CCCCCCCCOc1ccc(Nc2nc(CN3C(C)CCCC3C)cs2)cc1 (stereo not shown) [compound 326, 4-((2,6-dimethylpiperidin-1-yl)methyl)-N-(4-(octyloxy)phenyl)thiazol-2-amine] | 1 to 10 |
| CCCCCCCCOc1ccc(Nc2nc(-c3ccccc3)cs2)cc1 [compound 327, N-(4-(octyloxy)phenyl)-4-phenylthiazol-2-amine] | < 1 |
| CCCCCCCCOc1ccc(Nc2nc(-c3ccc(F)cc3)cs2)cc1 [compound 328, 4-(4-fluorophenyl)-N-(4-(octyloxy)phenyl)thiazol-2-amine] | < 1 |
| CCCCCCCCOc1ccc(Nc2nc(-c3ccc(Cl)c(Cl)c3)cs2)cc1 [compound 329, 4-(3,4-ddichlorophenyl)-N-(4-(octyloxy)phenyl)thiazol-2-amine] | 1 to 10 |
| CCCCCCCCOc1ccc(Nc2nc(-c3ccc(F)cc3F)cs2)cc1 [compound 330, 4-(2,4-difluorophenyl)-N-(4-(octyloxy)phenyl)thiazol-2-amine] | 1 to 10 |
| CCCCCCCCOc1ccc(Nc2nc(C3=NC(=O)NC3)cs2)cc1 [compound 331, 4-(2-(4-(octyloxy)phenylamino)thia-zol-4-yl)-1H-imidazol-2(5H)-one] | 1 to 10 |
| CCCCCCCCOc1ccc(Nc2nc(-c3csc(-c4ccccc4)n3)cs2)cc1 [compound 332, N-(4-(octyloxy)phenyl)-4-(2-phenylthiazol-4-yl)thiazol-2-amine] | 1 to 10 |
| COc1ccc(-c2nc(Nc3cccc(C(F)(F)F)c3)sc2-c2ccc(OC)cc2)cc1 [compound 333, 4,5-bis(4-methoxyphenyl)-N-(3-(trifluoromethyl)phenyl)thia-zol-2-amine] | 1 to 10 |
| CCOC(=O)c1ccc(Nc2nc(-c3ccc(OC)cc3)c(-c3ccc(OC)cc3)s2)cc1 [compound 334, ethyl 4-(4,5-bis(4-methoxyphenyl)thiazol-2-ylamino)benzoate] | 1 to 10 |
| COc1ccc(-c2nc(NC(=O)c3ccccc3)sc2-c2ccc(OC)cc2)cc1 [compound 335, N-(4,5-bis(4-methoxyphenyl)thiazol-2-yl)benzamide] | 1 to 10 |
| COc1ccc(CNc2nc(-c3ccc(OC)cc3)c(-c3ccc(OC)cc3)s2)cc1 [compound 336, N-(4-methoxybenzyl)-4,5-bis(4-methoxypheenyl)thiazol-2-amine] | > 10 |

| Structure (SMILES) | EC50 [µM] |
| --- | --- |
| CCOC(=O)c1ccc(Nc2nc(-c3ccc(OCC(=O)O)cc3)c(C)s2)cc1 [compound 337, 2-(4-(2-(4-(ethoxycarbonyl)phenylamino)-5-methylthiazol-4-yl)phenoxy)acetic acid] | > 10 |
| Cc1sc(Nc2cccc(C(F)(F)F)c2)nc1-c1ccc(OCC(=O)O)cc1 [compound 338, 2-(4-(5-methyl-2-(3-(trifluoromthyl)phenylamino)thiazol-4-yl)phenoxy)acetic acid] | > 10 |
| Cc1sc(NC(=O)c2ccccc2)nc1-c1ccc(OCC(=O)O)cc1 [compound 340, 2-(4-(2-benzamido-5-methylthiazol-4-yl)phenoxy)acetic acid] | > 10 |
| COc1ccc(CNc2nc(-c3ccc(OCC(=O)O)cc3)c(C)s2)cc1 [compound 341, 2-(4-(2-(4-methoxybenzylamino)-5-methylthiazol-4-yl)phenoxy)acetic acid] | > 10 |
| CCOC(=O)c1ccc(Nc2nc(-c3ccc(CC(=O)O)cc3)c(C)s2)cc1 [compound 342, 2-(4-(2-(4-(ethoxycarbonyl)phenylamino)-5-methylthiazol-4-yl)phenyl)acetic acid] | > 10 |
| Cc1sc(Nc2cccc(C(F)(F)F)c2)nc1-c1ccc(CC(=O)O)cc1 [compound 343, 2-(4-(5-methyl-2-(3-(trifluoromethyl)phenylamino)thiazol-4-yl)phenyl)acetic acid] | > 10 |
| Cc1sc(Nc2cccnc2)nc1-c1ccc(CC(=O)O)cc1 [compound 344, 2-(4-(5-methyl-2-(pyridin-3-ylamino)thiazol-4-yl)phenyl)acetic acid] | > 10 |
| Cc1sc(NC(=O)c2ccccc2)nc1-c1ccc(CC(=O)O)cc1 [compound 345, 2-(4-(2-benzamido-5-methylthiazol-4-yl)phenyl)acetic acid] | > 10 |
| COc1ccc(CNc2nc(-c3ccc(CC(=O)O)cc3)c(C)s2)cc1 [compound 346, 2-(4-(2-(4-methoxybenzylamino)-5-methylthiazol-4-yl)phenyl)acetic acid] | > 10 |
| CCOC(=O)c1ccc(Nc2nc(-c3ccc(F)cc3)c(C)s2)cc1 [compound 347, ethyl 4-(4-(4-fluorophenyl)-5-mthylthiazol-2-ylamino)benzoate] | > 10 |
| Cc1sc(Nc2cccc(C(F)(F)F)c2)nc1-c1ccc(F)cc1 [compound 348, 4-(4-fluorophenyl)-5-methyl-N-(3-(trifluoromethyl)phenyl)thia-zol-2-amine] | 1 to 10 |
| Cc1sc(Nc2cccnc2)nc1-c1ccc(F)cc1 [compound 349, N-(4-(4-fluorophenyl)-5-methylthiazol-2-yl)pyridin-3-amine] | > 10 |
| Cc1sc(NC(=O)c2ccccc2)nc1-c1ccc(F)cc1 [compound 350, N-(4-(4-fluorophenyl)-5-methylthiazol-2-yl)benzamide] | > 10 |
| COc1ccc(CNc2nc(-c3ccc(F)cc3)c(C)s2)cc1 [compound 351, N-(4-methoxybenzyl)-4-(4-fluorophenyl)-5-methylthiazol-2-amine] | > 10 |
| CCCCCCCOc1ccc(Nc2nc(-c3ccccc3)c(-c3ccccc3)s2)cc1 [compound 352, N-(4-(heptyloxy)phenyl)-4,5-diphenylthiazol-2-amine] | > 10 |
| CCCCCCCCOc1ccc(Nc2nc(-c3ccc(OC)cc3)c(-c3ccc(OC)cc3)s2)cc1 [compound 353, 4,5-bis(4-methoxyphenyl)-N-(4-(octyloxy)phenyl)thiazol-2-amine] | 1 to 10 |
| CCCCCCCOc1ccc(Nc2nc(-c3ccc(OC)cc3)c(-c3ccc(OC)cc3)s2)cc1 [compound 355, N-(4-(heptyloxy)phenyl)-4,5-bis(4-methoxyphenyl)thiazol-2-amine] | > 10 |
| COc1ccc(-c2nc(Nc3ccc(F)cc3)sc2-c2ccc(OC)cc2)cc1 [compound 356, N-(4-fluorophenyl)-4,5-bis(4-methoxyphenyl)thiazol-2-amine] | 1 to 10 |
| COc1ccc(-c2nc(Nc3cc(OC)ccc3OC)sc2-c2ccc(OC)cc2)cc1 [compound 357, N-(2,5-dimthoxyphenyl)-4,5-bis(4-methoxyphenyl)thiazol-2-amine] | > 10 |
| CCCCCOc1ccc(Nc2nc(-c3cccs3)cs2)cc1C(F)(F)F [compound 358, N-(4-(pentyloxy)-3-(trifluoromethyl)phenyl)-4-(thiophen-2-yl)thiazol-2-amine] | < 1 |
| CCCCCCCOc1ccc(Nc2nc(-c3cccs3)cs2)cc1 [compound 359, N-(4-(heptyloxy)phenyl)-4-(thiophen-2-yl)thiazol-2-amine] | < 1 |
| CCCCCCCCOc1ccc(Nc2nc(-c3cccs3)cs2)cc1 [compound 360, N-(4-(octyloxy)phenyl)-4-(thiophen-2-yl)thiazol-2-amine] | < 1 |
| CCCCCOc1ccc(Nc2nc(-c3cc4cnccc4o3)cs2)cc1C(F)(F)F [compound 361, 4-(furo[3,2-c]pyridin-2-yl)-N-(4-(pentyloxy)-3-(trifluoromethyl)phenyl)thia-zol-2-amine] | < 1 |
